Earlier results as cited in patent US20080242855A1, “Process for Producing Flavone C Glycoside Derivatives” (priority 2004, published 2008).

Key:
[1] = test system: auricular edema induced by 2,4-dinitrofluorobenzen (DNFB); settings: reported in Japanese Patent Laid-Open No. 2004-035474
peritoneal mast cells = settings: reported in Japanese Patent Laid-Open No. 2004-035474

| SMILES | inhibitory effect on the formation of auricular edema induced by 2,4-dinitrofluorobenzen (DNFB) [1] | inhibitory effect on histamine release from peritoneal mast cells (peritoneal mast cells) |
| --- | --- | --- |
| O=c1cc(-c2ccc(O)cc2)oc2c3c(cc(O)c12)O[C@H]1[C@@H](O)[C@H](O)[C@@H](CO)O[C@@H]31 [formula (4)] | inhibitory effect | inhibitory effect |
| O=c1cc(-c2ccc(O)cc2)oc2cc3c(c(O)c12)[C@@H]1O[C@H](CO)[C@@H](O)[C@H](O)[C@@H]1O3 [formula (1)] | inhibitory effect | inhibitory effect |
